Laboratory results as given in publication PMC10787358 (Science translational medicine, 2023).
“Also recorded” adds a separate entry of the source. Residues, ends and D or L forms follow the SMILES beside them. *: point of attachment. Cbz = O=C(OCc1ccccc1)*

What was measured:
[1] = test system: SARS-CoV PLpro; conditions: cited from earlier work
[2] = target: USP2 (Homo sapiens, UniProt O75604); test: In vitro USP2 activity assay; type: biochemical
[3] = test system: SARS-CoV-2 PLpro; test: PLpro-dependent ACE2 deubiquitination and ACE2 abundance in cells; type: cell-based
[4] = test system: ACE2 protein; test: Immunoblot of ACE2 protein abundance in cell lines; type: cell-based, human; conditions: for reduction of ACE2 protein abundance: Calu-3, HepG2 and H1650 cells, 48 h
[5] = test system: SARS-CoV-2 WT; test: TCID50 assay, authentic SARS-CoV-2 WT in pretreated Calu-3 cells; type: cell-based; conditions: Calu-3 cells pretreated 48 h, MOI 0.01, TCID50 over time
[6] = test system: hCoV-NL63; test: Cytopathic effect; type: cell-based; conditions: CPE assay; for inhibition of hCoV-NL63 infection: ACE2-dependent coronavirus
[7] = test system: hCoV-OC43; test: Cytopathic effect; type: cell-based; conditions: CPE assay, ACE2-independent strain
[8] = test system: hCoV-OC43; test: RT-qPCR of hCoV-OC43 in Huh7 cells; type: cell-based; conditions: Huh7 cells preinfected MOI 2 for 24 h, ML364 4 or 10 μM for 48 h
[9] = target: SARS-CoV-2 PLpro (Severe acute respiratory syndrome coronavirus 2, UniProt P0DTD1); test: SARS-CoV-2 PLpro enzymatic activity assay; type: biochemical; conditions: in vitro
[10] = test system: MERS-CoV pseudotype; type: cell-based
[11] = test system: pseudotyped SARS-CoV-2; type: cell-based; conditions: for pseudotype entry of SARS-CoV-2 after 48 h pretreatment: ML364 5 μM, UDCA plus ZGG 10 μM, Calu-3, HepG2, H1650
[12] = test system: ACE2-dependent bat sarbecoviruses; type: cell-based
[13] = test system: C57BL/6 mice; test: 2-week tolerability study in male C57BL/6 mice; type: in vivo, mouse
[14] = test system: SARS-CoV-2 WT; type: in vivo, K18-hACE2 transgenic mice; conditions: 50 mg/kg daily
[15] = test system: SARS-CoV-2; type: in vivo, K18-hACE2 transgenic mice
[16] = test system: cyclin D1 / cell cycle; test: TMT-based quantitative proteomic analysis and cell cycle analysis; set-up: species or system human
[17] = test system: HepG2 and Calu-3 cells
[18] = test system: SARS-CoV-2 Omicron BA.2 sublineage; set-up: species or system K18-hACE2 transgenic mice; conditions: mouse, in vivo
[19] = test system: SARS-CoV-2 WT; test: TCID50 assay, SARS-CoV-2 WT in NHBE cells; type: cell-based; conditions: preinfected MOI 0.01 for 1 h, 10 μM, 48 h
[20] = 50 mg/kg once a day or 35 mg/kg twice a day, 2 weeks

Chain of USP2 (O75604 whole entry): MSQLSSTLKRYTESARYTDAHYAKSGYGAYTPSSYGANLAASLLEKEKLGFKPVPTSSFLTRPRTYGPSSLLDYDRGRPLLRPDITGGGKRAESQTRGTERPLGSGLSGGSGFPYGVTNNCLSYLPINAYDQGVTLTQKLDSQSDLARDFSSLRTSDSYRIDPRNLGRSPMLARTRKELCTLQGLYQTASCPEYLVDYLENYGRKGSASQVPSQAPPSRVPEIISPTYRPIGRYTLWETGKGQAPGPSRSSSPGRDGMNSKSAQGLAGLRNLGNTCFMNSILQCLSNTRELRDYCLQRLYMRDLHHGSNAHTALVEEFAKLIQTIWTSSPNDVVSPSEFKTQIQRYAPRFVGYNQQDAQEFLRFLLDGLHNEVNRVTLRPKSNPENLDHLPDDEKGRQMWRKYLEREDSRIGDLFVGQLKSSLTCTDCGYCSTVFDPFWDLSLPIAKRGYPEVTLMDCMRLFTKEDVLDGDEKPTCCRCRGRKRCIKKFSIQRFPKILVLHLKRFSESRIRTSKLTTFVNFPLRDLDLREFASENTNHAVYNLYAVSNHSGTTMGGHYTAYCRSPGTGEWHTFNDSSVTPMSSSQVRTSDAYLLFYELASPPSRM

## S=c1nc[nH]c2nc[nH]c12 [6MP]
[1]
  SARS-CoV PLpro protease activity: inhibit

## Nc1nc2[nH]cnc2c(=S)[nH]1 [6TG]
[1]
  SARS-CoV PLpro protease activity: inhibit

## Cc1ccc(N)cc1C(=O)N[C@H](C)c1cccc2ccccc12 [GRL0617]
[2]; even at 100 μM
  activity toward USP2: no obvious activity
[3]
  infection-induced reduction of ACE2: failed to prevent the infection-induced reduction of ACE2
[3]; in cells
  PLpro-induced ACE2 deubiquitination: diminished PLpro-induced ACE2 deubiquitination

## CC(C)C[C@@H](C=O)NC(=O)[C@H](CC(C)C)NC(=O)[C@H](CC(C)C)NC(=O)OCc1ccccc1 [MG132] (Cbz-Leu-Leu-Leu-aldehyde)
[4]; HepG2 cells with cycloheximide
  ACE2 protein accumulation: noticeable ACE2 protein accumulation

## Cc1ccc(S(=O)(=O)Nc2cc(C(F)(F)F)ccc2C(=O)Nc2nc(-c3ccccc3)cs2)cc1 [ML364]
[5]
  viral replication of SARS-CoV-2 WT: obvious reduction
[6]
  inhibition of hCoV-NL63 infection: effective
[6]; read-out: IC50 against hCoV-NL63
  IC50: ~180 nM
[7]
  inhibition of hCoV-OC43 infection: limited or no activity
[8]
  activity against hCoV-OC43: did not observe any activity
[4]
  reduction of ACE2 protein abundance: reductions in ACE2 protein in all three cell lines
[4]; HepG2, 10 μM, within 12 hours of treatment
  ACE2 protein abundance decrease: 50%
[2]
  inhibition of USP2 activity: inhibited USP2 activity
[9]
  inhibition of SARS-CoV-2 PLpro: inhibitory effects
[10]
  entry of MERS-CoV pseudotype: did not prevent the entry
[11]; HepG2, ML364 5 μM
  SARS-CoV-2 pseudovirus entry into cells: obvious reduction
[11]
  pseudotype entry of SARS-CoV-2 after 48 h pretreatment: prevented the pseudotype entry
[12]
  pseudotype entry of ACE2-dependent bat sarbecoviruses: promising activity
[13]; [20]
  clinical signs: healthy without any clinical signs
  plasma angiotensin-(1-7) concentration: did not lead to any noticeable reduction
[13]; pancreas, small intestine and lung of C57BL/6 mice
  ACE2 protein abundance in mouse tissues: reduced abundance of ACE2 protein
[14]
  ACE2 protein abundance in the lungs: significantly (P = 0.01) reduced
[14]; 4 days before 6-day challenge
  viral loads in the lungs: significant (P = 3.6 × 10^−6) decrease
[14]; versus vehicle
  lung pathology (H&E): reduction in overall lung pathology
[15]; administration 6 hours after infection
  viral titers and SARS-CoV-2 E gene in lungs and small intestines: decrease in viral titers
[15]; administration 6 hours after infection, versus vehicle
  lung pathology: improved lung pathology
[16]
  cell cycle effect: primarily cell cycle arrest
[16]; TMT-based proteomics
  cyclin D1 protein (TMT): significant (P = 3.3 × 10^−6) decrease
Single intraperitoneal dose, male C57BL/6 mice
  time of peak plasma concentration: 30 min
[17]
  cytotoxicity by LDH release: minimal cytotoxicity

## Cc1ccc(S(=O)(=O)Nc2ccc(C(F)(F)F)cc2C(=O)Nc2nc(-c3ccc(Br)cc3)cs2)cc1 [MS102]
[6]
  inhibition of hCoV-NL63 infection: effective
[7]
  inhibition of hCoV-OC43 infection: limited or no activity
[2]
  inhibition of USP2 activity: slightly enhanced activity
[11]; HepG2, 5 μM, 24 h pretreatment
  entry of ACE2-dependent pseudotypes compared with ML364: enhanced activity
[15]; mouse, in vivo
  therapeutic efficacy (TCID50, lung pathology) compared with ML364: enhanced efficacy compared with ML364
[18]
  survival extension versus vehicle-treated control: 3 days
[19]
  blocking infection of NHBE cells compared with ML364: improved efficacy
C57BL/6 mice
  peak plasma concentration relative to ML364: approximately threefold
  plasma concentration 24 hours after administration relative to ML364: approximately 2500 times
Male C57BL/6 mice, p.o. 50 mg/kg, i.v. 5 mg/kg
  oral bioavailability: ~100%
[17]
  cytotoxicity by LDH release: minimal cytotoxicity

## CC(O)c1cc(C(=O)N[C@@H](C)Cn2ccc(-c3ccc(C#N)c(Cl)c3)n2)[nH]n1 (some centres unmarked) [ODM-201]
[4]
  reduction of ACE2 protein abundance: mild efficacy

## C[C@H](CCC(=O)O)[C@H]1CC[C@H]2[C@@H]3[C@@H](O)C[C@@H]4C[C@H](O)CC[C@]4(C)[C@H]3CC[C@]12C [UDCA, ursodeoxycholic acid]
[6]
  inhibition of hCoV-NL63 infection: no inhibitory activity
[7]
  inhibition of hCoV-OC43 infection: no inhibitory activity
[4]
  reduction of ACE2 protein abundance: only mildly reduced ACE2 protein
[11]
  pseudotype entry of SARS-CoV-2 after 48 h pretreatment: only showed mild effects; also recorded: mild effect

## C/C=C1\C(=O)C[C@H]2[C@@H]3CCC4=CC(=O)CC[C@]4(C)[C@H]3CC[C@]12C [ZGG, z-guggulsterone]
[11]
  pseudotype entry of SARS-CoV-2 after 48 h pretreatment: only showed mild effects

## CCC(CC)COC(=O)[C@H](C)N[P@](=O)(OC[C@H]1O[C@@](C#N)(c2ccc3c(N)ncnn23)[C@H](O)[C@@H]1O)Oc1ccccc1 [remdesivir]
[6]
  inhibition of hCoV-NL63 infection: active
[7]
  inhibition of hCoV-OC43 infection: active
